Test results as given in patent US9242944B2 (UNIVERSITY OF MARYLAND, BALTIMORE, priority 2013, dated 2016).
Where two headings read alike, the source gives them in different places.

Columns and labels:
c-Myc-Max heterodimers = target: T1, c-Myc-Max heterodimers (Homo sapiens, UniProt P01106); test: Electrophoretic mobility shift assay (EMSA) of c-Myc-Max dimerization and DNA binding; details: for inhibition at 100 µM: Table 11, read-out: % Inhibition of c-Myc-Max Dimerization
T1 construct: c-Myc bHLH-ZIP domain (residues 353-437); His6-TEV protease substrate tag; made in house; host or cells: bacteria (pET151 vector for Myc)
T1 sequence (P01106 368-452, one chain of several): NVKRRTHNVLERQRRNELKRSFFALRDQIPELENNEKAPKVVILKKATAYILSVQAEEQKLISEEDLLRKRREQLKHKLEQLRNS
Experimental: The ability of a small-molecule to interfere with c-Myc-Max dimerization is conveniently assessed through the disruption of the c-Myc-Max/DNA ternary complex by an electrophoretic mobility shift assay (EMSA) using fluorescently-labelled DNA, and subsequently quantified by densitometry.(23) Accordingly, a 100-member library was screened for the ability to disrupt the c-Myc-Max dimer.
These were performed essentially as described previously (23). Briefly, Ni^+-agarose-purified His6-tagged c-Myc bHLH-ZIP domain (residues 353-437) was used for all binding assays as was the His6-tagged 151 residue isoform of Max, otherwise referred to as Max(S) (residues 2-151) (21). For each binding reaction, the proteins were allowed to heterodimerize at a concentration of 30 nM each in the presence of 20 nM of a 5′-HEX-tagged double-stranded 22-base pair oligonucleotide 5′-hexachlorofluoresceine-[…]-3′ (SEQ ID NO: 1) containing a consensus c-Myc binding site (CACGTG) and the indicated concentration of small molecule inhibitor. Control reactions contained the same oligonucleotide in the presence of 60 nM of the 160 residue isoform of Max referred to as Max(L) (21). All binding reactions were prepared in a buffer consisting of PBS (pH 7.3), 1 mmol/L EDTA, 0.1% NP40, 5% glycerol, 1 mmol/L DTT, and 0.4 mg/mL bovine serum albumin. Electrophoresis was performed on 8% polyacrylamide/bisacrylamide (80:1) gels in […] (23). Each reaction was run on at least three separate occasions.
EMSAs were performed essentially as described utilizing bacterially-expressed recombinant proteins purified nearly to homogeneity.(23) Experiments with Max homodimers used the His6-tagged 160 amino acid isoform of the protein, termed Max(L), which homodimerizes and binds DNA well. For studies with Myc-Max heterodimers, the His6-tagged 151 residue isoform of Max [Max(S)] was used, which binds DNA well as a heterodimer with Myc but poorly as a homodimer.(23) Recombinant Myc protein, expressed in the pET151 vector, consisted of the His6-TEV protease substrate-tagged 85 amino acid bHLH-ZIP domain. (23) Each protein was purified by Ni-agarose affinity chromatography as previously described. (23) The His6-TEV tag was removed from the Myc protein by TEV protease cleavage followed by re-purification using Ni-agarose affinity chromatography to remove the His6-TEV protease and the cleaved His6-TEV tag as previously described. Binding assays were performed with 30 nM of each protein and 30 nM of a 6-carboxy-2′,4,4′,5′,7,7′-hexachlorofluorescein (HEX)-tagged double-stranded oligonucleotide containing a consensus Myc binding site (IDT, Coralville, Iowa).(23)

HL60 cells = test: Growth inhibition (MTT assay) in HL60 cells; type: cell-based, human; details: 10-point serial dilution, quadruplicate; for IC50: Homo sapiens, HL-60, MTT assay, read-out: IC50 HL60; for IC50 HL60: MTT assay
Experimental: (§1) These were performed using HL60 human promyelocytic leukemia cells or Daudi Burkitt lymphoma cells essentially as described previously (23). Briefly, cells were seeded into 96 well dishes (5000 cells/well and 10,000 cells/well for HL60 and Daudi cells, respectively). Growth medium consisted of RPMI medium supplemented with Penicillin/Streptomycin, glutamine and 10% fetal bovine serum. The indicated concentrations of each compound were then added and 10-point growth inhibition assays were performed 3-5 days later using the MTT assay. Each point was performed in quadruplicate.
(§2) Daudi Burkitt lymphoma and HL60 promyelocytic leukemia cells were maintained in RPMI medium supplemented with 10% fetal bovine serum.(23) For growth inhibition studies, 3×10^3 cells were seeded in 96 well plates in the presence of serial dilutions of each compound. A total of 10 dilutions, ranging from 0.1 to 50 μM were performed for each compound. Standard MTT assays (23) were used to quantify cell number 3-4 days later and compared to wells exposed to DMSO vehicle only.

Max-Max homodimers = target: T2, Max-Max homodimers (Homo sapiens, UniProt P61244); test: EMSA of Max-Max homodimerization and DNA binding; details: 50% inhibition of Max-Max dimerization and DNA binding in EMSAs
T2 construct: His6; made in house; host or cells: bacteria
T2 sequence (P61244 whole entry): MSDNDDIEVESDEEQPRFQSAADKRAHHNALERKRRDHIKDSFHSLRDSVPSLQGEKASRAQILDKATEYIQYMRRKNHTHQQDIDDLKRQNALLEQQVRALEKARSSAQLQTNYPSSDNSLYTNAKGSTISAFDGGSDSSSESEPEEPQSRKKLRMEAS

Daudi cells = test: Growth inhibition (MTT assay) in Daudi cells; type: cell-based; details: 10-point serial dilution, quadruplicate; for IC50: Homo sapiens, Daudi, read-out: IC50 Daudi
Experimental: as §1, §2

c-Myc-Max dimerization = target: T3, c-Myc-Max dimerization (Homo sapiens, UniProt P01106); test: Co-immunoprecipitation (Co-IP) of c-Myc with Max in HL60 cells; type: cell-based
T3 construct: endogenous in cells; host or cells: HL60
T3 sequence (P01106 16-454 limits assumed): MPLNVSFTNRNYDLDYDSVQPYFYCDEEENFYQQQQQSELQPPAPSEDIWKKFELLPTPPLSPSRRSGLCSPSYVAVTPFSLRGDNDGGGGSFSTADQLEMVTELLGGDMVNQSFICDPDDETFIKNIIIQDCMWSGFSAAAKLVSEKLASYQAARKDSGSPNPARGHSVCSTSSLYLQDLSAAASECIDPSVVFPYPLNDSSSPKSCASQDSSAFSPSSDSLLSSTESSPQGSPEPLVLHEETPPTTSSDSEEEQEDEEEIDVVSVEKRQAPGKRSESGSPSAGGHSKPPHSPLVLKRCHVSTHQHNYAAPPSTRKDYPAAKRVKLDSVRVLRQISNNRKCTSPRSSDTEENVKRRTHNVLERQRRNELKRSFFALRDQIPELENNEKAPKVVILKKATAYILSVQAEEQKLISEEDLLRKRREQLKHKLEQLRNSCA
Experimental: Co-IP assays were performed essentially as described previously.(23) Briefly, 5×10^6 HL60 cells (>90% viable) in log-phase growth were treated in suspension for 4-6 h with the stated concentration of 3jc48-3. As a negative control, samples exposed to DMSO vehicle only were included and processed in parallel. Treated cells were collected by centrifugation, washed twice in ice-cold PBS and lysed in IP Buffer. 300 μg of cleared lysate was then precipitated with a 1:200 dilution of anti-Max antibody(23) followed by subsequent precipitation with protein G-Sepharose using conditions recommended by the supplier (Santa Cruz Biotechnology, Inc. Santa Cruz, Calif.). The precipitate was washed three times in IP buffer, boiled in running buffer and resolved by 10% SDS-PAGE. After electrotransfer of the proteins to a PVDF membrane (Millipore Corp. Billercica, Mass.), the blot was probed with a 1:1000 dilution of anti-Myc monoclonal antibody (9E10, Santa Cruz Biotechnology, Santa Cruz, Calif.). Blots were developed using a Pierce ECL Plus enhanced chemiluminescence kit according to the directions of the supplier (Thermo-Fisher, Pittsburgh, Pa.).

**Q.** How did the inhibition at 100 µM (c-Myc-Max heterodimers; EMSA) turn out when `N#Cc1ccc(Nc2ccccc2-c2ccccc2)c(Cl)c1` [SF-3-083] was run?
**A.** 9%

**Q.** For `NC(=O)c1ccc(Nc2ccccc2-c2ccccc2)cc1` [SF-3-093A], which inhibition at 100 µM (c-Myc-Max heterodimers; EMSA) is on record?
**A.** 0%

**Q.** With `O=C(O)c1ccc(Nc2ccccc2-c2ccccc2)cc1` [SF-3-093B] as the compound, how does the inhibition at 100 µM (c-Myc-Max heterodimers; EMSA) read?
**A.** 4%

**Q.** How did the inhibition at 100 µM (c-Myc-Max heterodimers; EMSA) turn out when `Nc1ccc(Nc2ccccc2-c2ccccc2)cc1` [SF-3-098] was run?
**A.** 0%

**Q.** How did the inhibition at 100 µM (c-Myc-Max heterodimers; EMSA) turn out when `O=[N+]([O-])c1ccc(Nc2ccccc2-c2ccccc2)cc1O` [SF-3-101] was run?
**A.** 0%

**Q.** For `NC(=O)c1cc([N+](=O)[O-])ccc1Nc1ccccc1-c1ccccc1` [SF-3-103A], which inhibition at 100 µM (c-Myc-Max heterodimers; EMSA) is on record?
**A.** 0%

**Q.** Which IC50 (HL60 cells) does the source give for `O=C(O)c1cc([N+](=O)[O-])ccc1Nc1ccccc1-c1ccccc1` [SF-3-103B, 2-([1,1′-biphenyl]-2-ylamino)-5-nitrobenzoic acid] here?
**A.** > 100 µM

**Q.** And the “IC50 HL60” value (HL60 cells)?
**A.** inactive

**Q.** What about the IC50 (Max-Max homodimers) of the same compound?
**A.** > 100 µM

**Q.** And the “IC50 Daudi” value (Daudi cells)?
**A.** inactive

**Q.** What about the IC50 (Daudi cells) of the same compound?
**A.** > 100 µM

**Q.** What about the IC50 (c-Myc-Max heterodimers; 50% inhibition of c-Myc-Max dimerization and DNA binding in EMSAs) of the same compound?
**A.** 84 µM

**Q.** What about the “c-Myc-Max inhibitory potency relative to 10074-G5” value (c-Myc-Max heterodimers; EMSA) of the same compound?
**A.** nearly two-fold more potent

**Q.** What about the inhibition at 100 µM (c-Myc-Max heterodimers; EMSA) of the same compound?
**A.** ≥ 33%

**Q.** `NC(=O)c1cc(Nc2ccccc2-c2ccccc2)ccc1[N+](=O)[O-]` [SF-3-104A] was tested. Which inhibition at 100 µM (c-Myc-Max heterodimers; EMSA) did it give?
**A.** 0%

**Q.** With `COC(=O)c1ccc(Nc2ccccc2-c2ccccc2)cc1` [SF-3-105] as the compound, how does the inhibition at 100 µM (c-Myc-Max heterodimers; EMSA) read?
**A.** 0%

**Q.** `COC(=O)c1cc([N+](=O)[O-])ccc1Nc1ccccc1-c1ccccc1` [SF-3-106] was tested. Which inhibition at 100 µM (c-Myc-Max heterodimers; EMSA) did it give?
**A.** 0%

**Q.** `COC(=O)c1cc(Nc2ccccc2-c2ccccc2)ccc1[N+](=O)[O-]` [SF-3-107] was tested. Which inhibition at 100 µM (c-Myc-Max heterodimers; EMSA) did it give?
**A.** 0%

**Q.** What does the source list for `O=C(Oc1ccccc1)c1ccc(Nc2ccc([N+](=O)[O-])c3nonc23)cc1` [SF-4-017, Phenyl 4-((7-nitrobenzo[c][1,2,5]oxadiazol-4-yl)amino)benzoate]?
**A.** disruption of c-Myc-Max dimerization in cells (co-IP) (c-Myc-Max dimerization): inhibit c-Myc-Max dimerization in cells; IC50 (HL60 cells): 9.2 ± 0.78 µM; IC50 HL60 (HL60 cells): single-digit micromolar; IC50 (Max-Max homodimers): > 50 µM; IC50 Daudi (Daudi cells): single-digit micromolar; IC50 (Daudi cells): 2.5 ± 0.05 µM; IC50 (c-Myc-Max heterodimers): 30 µM
